According to PMC8115619, “Generation of a chemical genetic model for JAK3” (Scientific Reports, 2021):

Columns and labels:
Assay type in all cases: biochemical
Conditions in all cases: 1 µM inhibitor, mean
[1] = molecular target: CHK1 (Homo sapiens, UniProt O14757); assay: Selectivity screen CHK1
Method: (§1) For the in vitro kinase assay, JAK3 (5–20 mU diluted in 50 mM Tris pH 7.5, 0.1 mM EGTA, 0.05% β-mercaptoethanol, 1 mg/ml BSA) was assayed against PDKtide ([…]) in a final volume of 25.5 µl containing 50 mM Tris pH 7.5, 0.1 mM EGTA, 0.05% β-mercaptoethanol, 100 µM substrate peptide, 10 mM magnesium acetate and 0.02 mM [33P-γ-ATP] (50–1000 cpm/pmole) and incubated for 30 min at room temperature. Assays were started by the addition of the ATP and stopped by addition of 5 µl of 0.5 M (3%) orthophosphoric acid and then harvested onto P81 Unifilter plates with a wash buffer of 50 mM orthophosphoric acid. To determine the Km for ATP, assays were run using 1, 5, 10, 20, 50, 100, 200, 400, 500 μM ATP and Km derived by non-linear regression fitting to the Michaelis–Menten equation v = Vmax[S]/(Km + [S]). IC50 values for inhibitors via non-linear regression using a parameter model: Y = Bottom + (Top–Bottom)/(1 + (IC50/X)^HillSlope). Non-linear regression was carried out in Prism (version 8). In vitro selectivity screen was carried out as described previously.

[2] = molecular target: EPH-B1 (Homo sapiens, UniProt P54762); assay: Selectivity screen EPH-B1
Method: as §1

[3] = molecular target: VEG-FR (Homo sapiens, UniProt P17948); assay: Selectivity screen VEG-FR
Method: as §1

[4] = molecular target: BRSK2 (Homo sapiens, UniProt Q8IWQ3); assay: Selectivity screen BRSK2
Chain of BRSK2 (Q8IWQ3 whole entry): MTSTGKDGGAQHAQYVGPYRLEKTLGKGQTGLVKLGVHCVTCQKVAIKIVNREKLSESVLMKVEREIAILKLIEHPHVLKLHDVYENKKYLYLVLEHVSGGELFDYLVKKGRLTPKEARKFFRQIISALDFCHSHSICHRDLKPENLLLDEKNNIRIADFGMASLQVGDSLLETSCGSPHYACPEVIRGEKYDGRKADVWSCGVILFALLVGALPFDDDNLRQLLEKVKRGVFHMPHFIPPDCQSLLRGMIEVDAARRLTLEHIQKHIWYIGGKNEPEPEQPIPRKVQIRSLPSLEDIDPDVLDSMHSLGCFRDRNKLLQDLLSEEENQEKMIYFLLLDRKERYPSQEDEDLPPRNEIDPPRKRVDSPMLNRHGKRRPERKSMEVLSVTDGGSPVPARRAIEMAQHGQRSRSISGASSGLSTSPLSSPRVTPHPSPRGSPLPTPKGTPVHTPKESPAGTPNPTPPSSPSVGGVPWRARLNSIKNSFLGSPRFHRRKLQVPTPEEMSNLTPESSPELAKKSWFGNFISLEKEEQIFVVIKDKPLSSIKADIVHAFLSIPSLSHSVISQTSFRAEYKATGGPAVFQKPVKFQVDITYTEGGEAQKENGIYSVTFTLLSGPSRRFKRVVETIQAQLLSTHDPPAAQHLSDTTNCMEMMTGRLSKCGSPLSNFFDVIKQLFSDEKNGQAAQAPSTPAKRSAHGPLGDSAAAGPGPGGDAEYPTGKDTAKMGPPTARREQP
Method: as §1

[5] = molecular target: PAK2 (Homo sapiens, UniProt Q13177); assay: Selectivity screen PAK2
Chain of PAK2 (Q13177 whole entry): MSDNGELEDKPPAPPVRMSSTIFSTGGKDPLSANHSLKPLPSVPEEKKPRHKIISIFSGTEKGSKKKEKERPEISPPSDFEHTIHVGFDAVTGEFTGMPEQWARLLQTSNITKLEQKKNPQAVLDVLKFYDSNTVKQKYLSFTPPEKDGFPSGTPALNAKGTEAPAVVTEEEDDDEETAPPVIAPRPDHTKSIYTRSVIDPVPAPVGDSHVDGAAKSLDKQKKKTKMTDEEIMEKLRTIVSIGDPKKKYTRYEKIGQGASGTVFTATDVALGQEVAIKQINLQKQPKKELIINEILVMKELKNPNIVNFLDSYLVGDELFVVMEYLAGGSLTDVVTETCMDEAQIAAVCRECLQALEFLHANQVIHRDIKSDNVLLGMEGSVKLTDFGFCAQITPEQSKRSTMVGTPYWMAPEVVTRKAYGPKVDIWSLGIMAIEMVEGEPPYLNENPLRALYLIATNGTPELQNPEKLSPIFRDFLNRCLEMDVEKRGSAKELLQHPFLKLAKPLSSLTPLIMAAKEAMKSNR
Method: as §1

[6] = molecular target: OSR1 (Homo sapiens, UniProt O95747); assay: Selectivity screen OSR1
Method: as §1

[7] = molecular target: GCK (Homo sapiens, UniProt Q12851); assay: Selectivity screen GCK
Method: as §1

[8] = molecular target: HIPK1 (Homo sapiens, UniProt Q86Z02); assay: Selectivity screen HIPK1
Method: as §1

[9] = molecular target: MAPKAP-K2 (Homo sapiens, UniProt P49137); assay: Selectivity screen MAPKAP-K2
Method: as §1

[10] = molecular target: EF2K (Homo sapiens, UniProt O00418); assay: Selectivity screen EF2K
Method: as §1

[11] = molecular target: MARK3 (Homo sapiens, UniProt P27448); assay: Selectivity screen MARK3
Method: as §1

[12] = molecular target: ERK5 (Homo sapiens, UniProt Q13164); assay: Selectivity screen ERK5
Method: as §1

[13] = molecular target: ERK8 (Homo sapiens, UniProt Q8TD08); assay: Selectivity screen ERK8
Chain of ERK8 (Q8TD08 whole entry): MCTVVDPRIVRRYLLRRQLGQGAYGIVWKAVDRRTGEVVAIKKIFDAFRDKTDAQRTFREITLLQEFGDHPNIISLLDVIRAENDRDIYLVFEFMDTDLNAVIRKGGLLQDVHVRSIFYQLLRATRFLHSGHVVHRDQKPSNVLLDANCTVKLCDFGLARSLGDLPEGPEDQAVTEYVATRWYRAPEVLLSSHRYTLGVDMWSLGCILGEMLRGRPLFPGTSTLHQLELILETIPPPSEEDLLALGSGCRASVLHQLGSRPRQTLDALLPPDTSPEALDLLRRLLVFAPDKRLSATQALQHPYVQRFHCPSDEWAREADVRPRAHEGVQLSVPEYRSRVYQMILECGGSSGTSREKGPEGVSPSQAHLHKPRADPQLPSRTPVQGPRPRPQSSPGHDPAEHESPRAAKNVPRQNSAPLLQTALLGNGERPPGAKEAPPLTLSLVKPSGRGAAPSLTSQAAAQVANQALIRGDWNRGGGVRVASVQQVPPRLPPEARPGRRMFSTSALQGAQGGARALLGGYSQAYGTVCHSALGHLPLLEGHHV
Method: as §1

[14] = molecular target: PKCa (Homo sapiens, UniProt P17252); assay: Selectivity screen PKCa
Method: as §1

[15] = molecular target: Aurora B (Homo sapiens, UniProt Q96GD4); assay: Selectivity screen Aurora B
Chain of Aurora B (Q96GD4 whole entry): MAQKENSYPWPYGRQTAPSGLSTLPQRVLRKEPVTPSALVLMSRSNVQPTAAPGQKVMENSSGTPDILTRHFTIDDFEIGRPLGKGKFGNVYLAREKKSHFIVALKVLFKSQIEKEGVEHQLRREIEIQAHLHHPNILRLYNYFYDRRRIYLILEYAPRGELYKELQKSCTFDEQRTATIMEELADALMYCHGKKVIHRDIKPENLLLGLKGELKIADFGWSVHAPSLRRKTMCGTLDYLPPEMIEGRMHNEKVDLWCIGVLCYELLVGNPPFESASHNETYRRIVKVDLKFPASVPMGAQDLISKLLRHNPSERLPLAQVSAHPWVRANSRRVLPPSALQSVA

[16] = molecular target: CK2 (Homo sapiens, UniProt P68400); assay: Selectivity screen CK2
Chain of CK2 (P68400 whole entry): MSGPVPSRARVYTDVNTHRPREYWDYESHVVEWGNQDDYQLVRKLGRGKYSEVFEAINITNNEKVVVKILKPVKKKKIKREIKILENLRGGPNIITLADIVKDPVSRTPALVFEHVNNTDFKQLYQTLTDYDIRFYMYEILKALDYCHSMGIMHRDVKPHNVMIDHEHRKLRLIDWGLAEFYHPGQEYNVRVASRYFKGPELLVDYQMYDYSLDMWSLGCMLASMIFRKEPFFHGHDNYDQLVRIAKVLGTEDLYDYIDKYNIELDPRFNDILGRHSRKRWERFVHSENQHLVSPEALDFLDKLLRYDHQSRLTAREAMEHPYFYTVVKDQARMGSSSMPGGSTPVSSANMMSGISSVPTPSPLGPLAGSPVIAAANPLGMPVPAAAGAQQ
Method: as §1

[17] = molecular target: DYRK1A (Homo sapiens, UniProt Q13627); assay: Selectivity screen DYRK1A
Method: as §1

[18] = molecular target: IGF-1R (Homo sapiens, UniProt P08069); assay: Selectivity screen IGF-1R
Method: as §1

[19] = molecular target: MKK2 (Homo sapiens, UniProt P36507); assay: Selectivity screen MKK2
Method: as §1

[20] = molecular target: RSK1 (Homo sapiens, UniProt Q15418); assay: Selectivity screen RSK1
Method: as §1

[21] = molecular target: p38g MAPK (Homo sapiens, UniProt P53778); assay: Selectivity screen p38g MAPK
Chain of p38g MAPK (P53778 whole entry): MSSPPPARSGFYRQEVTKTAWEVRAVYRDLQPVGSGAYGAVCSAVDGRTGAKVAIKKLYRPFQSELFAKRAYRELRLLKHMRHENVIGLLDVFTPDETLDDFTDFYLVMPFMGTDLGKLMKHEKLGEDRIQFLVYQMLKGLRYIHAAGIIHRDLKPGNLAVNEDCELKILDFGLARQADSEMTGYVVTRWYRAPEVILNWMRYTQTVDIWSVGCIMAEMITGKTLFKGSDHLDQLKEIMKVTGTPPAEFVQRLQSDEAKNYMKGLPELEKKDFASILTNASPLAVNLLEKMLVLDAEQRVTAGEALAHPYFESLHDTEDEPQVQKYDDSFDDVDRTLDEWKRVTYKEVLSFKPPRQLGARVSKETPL
Method: as §1

[22] = molecular target: JNK2 (Homo sapiens, UniProt P45984); assay: Selectivity screen JNK2
Method: as §1

[23] = molecular target: FGF-R1 (Homo sapiens, UniProt P11362); assay: Selectivity screen FGF-R1
Method: as §1

[24] = molecular target: IRR (Homo sapiens, UniProt P14616); assay: Selectivity screen IRR
Method: as §1

[25] = molecular target: PIM3 (Homo sapiens, UniProt Q86V86); assay: Selectivity screen PIM3
Method: as §1

[26] = molecular target: TLK1 (Homo sapiens, UniProt Q9UKI8); assay: Selectivity screen TLK1
Method: as §1

[27] = molecular target: PRK2 (Homo sapiens, UniProt Q16513); assay: Selectivity screen PRK2
Method: as §1

[28] = molecular target: HER4 (Homo sapiens, UniProt Q15303); assay: Selectivity screen HER4
Method: as §1

[29] = molecular target: MPSK1 (Homo sapiens, UniProt O75716); assay: Selectivity screen MPSK1
Method: as §1

[30] = molecular target: GSK3b (Homo sapiens, UniProt P49841); assay: Selectivity screen GSK3b
Method: as §1

[31] = molecular target: MEKK1 (Homo sapiens, UniProt Q13233); assay: Selectivity screen MEKK1
Chain of MEKK1 (Q13233 whole entry): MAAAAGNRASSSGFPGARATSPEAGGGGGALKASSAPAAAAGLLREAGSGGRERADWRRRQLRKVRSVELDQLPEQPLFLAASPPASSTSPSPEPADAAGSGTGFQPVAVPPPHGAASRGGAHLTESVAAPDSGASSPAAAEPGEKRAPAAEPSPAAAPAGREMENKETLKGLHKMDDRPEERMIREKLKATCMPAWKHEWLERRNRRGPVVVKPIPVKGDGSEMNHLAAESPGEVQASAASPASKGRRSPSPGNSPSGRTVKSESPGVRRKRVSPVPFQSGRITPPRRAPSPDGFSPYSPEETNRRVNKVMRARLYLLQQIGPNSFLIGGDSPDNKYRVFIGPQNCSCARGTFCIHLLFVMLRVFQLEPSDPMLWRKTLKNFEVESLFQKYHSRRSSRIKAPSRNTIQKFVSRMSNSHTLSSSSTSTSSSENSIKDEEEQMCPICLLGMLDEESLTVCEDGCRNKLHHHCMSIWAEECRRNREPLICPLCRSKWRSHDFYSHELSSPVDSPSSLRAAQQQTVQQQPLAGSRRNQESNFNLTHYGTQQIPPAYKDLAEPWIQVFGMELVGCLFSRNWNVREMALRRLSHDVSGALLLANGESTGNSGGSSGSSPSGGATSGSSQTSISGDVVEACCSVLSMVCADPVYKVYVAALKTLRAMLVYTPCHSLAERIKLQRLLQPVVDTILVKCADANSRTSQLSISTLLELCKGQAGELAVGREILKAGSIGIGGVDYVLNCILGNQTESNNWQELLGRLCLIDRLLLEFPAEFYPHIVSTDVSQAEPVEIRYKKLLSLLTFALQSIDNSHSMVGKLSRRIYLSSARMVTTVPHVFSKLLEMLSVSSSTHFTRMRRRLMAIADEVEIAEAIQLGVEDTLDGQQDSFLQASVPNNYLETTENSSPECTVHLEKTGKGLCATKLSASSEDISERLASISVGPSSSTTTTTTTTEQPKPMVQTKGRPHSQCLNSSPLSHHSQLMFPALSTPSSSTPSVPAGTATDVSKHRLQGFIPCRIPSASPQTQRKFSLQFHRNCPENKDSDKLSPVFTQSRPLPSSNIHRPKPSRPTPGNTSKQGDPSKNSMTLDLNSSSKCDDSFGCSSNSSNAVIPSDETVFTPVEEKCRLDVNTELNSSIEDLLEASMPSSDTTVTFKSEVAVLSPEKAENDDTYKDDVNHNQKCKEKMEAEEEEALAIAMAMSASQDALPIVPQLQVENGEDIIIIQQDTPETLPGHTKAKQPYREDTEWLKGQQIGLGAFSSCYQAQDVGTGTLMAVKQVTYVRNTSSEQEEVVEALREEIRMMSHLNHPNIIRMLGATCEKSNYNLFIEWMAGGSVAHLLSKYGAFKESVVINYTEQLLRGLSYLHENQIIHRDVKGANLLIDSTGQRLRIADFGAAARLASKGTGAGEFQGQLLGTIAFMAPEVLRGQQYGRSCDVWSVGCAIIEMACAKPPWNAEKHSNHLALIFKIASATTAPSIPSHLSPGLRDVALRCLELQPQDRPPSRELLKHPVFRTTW
Method: as §1

[32] = molecular target: p38d MAPK (Homo sapiens, UniProt O15264); assay: Selectivity screen p38d MAPK
Method: as §1

[33] = molecular target: MAPKAP-K3 (Homo sapiens, UniProt Q16644); assay: Selectivity screen MAPKAP-K3
Chain of MAPKAP-K3 (Q16644 whole entry): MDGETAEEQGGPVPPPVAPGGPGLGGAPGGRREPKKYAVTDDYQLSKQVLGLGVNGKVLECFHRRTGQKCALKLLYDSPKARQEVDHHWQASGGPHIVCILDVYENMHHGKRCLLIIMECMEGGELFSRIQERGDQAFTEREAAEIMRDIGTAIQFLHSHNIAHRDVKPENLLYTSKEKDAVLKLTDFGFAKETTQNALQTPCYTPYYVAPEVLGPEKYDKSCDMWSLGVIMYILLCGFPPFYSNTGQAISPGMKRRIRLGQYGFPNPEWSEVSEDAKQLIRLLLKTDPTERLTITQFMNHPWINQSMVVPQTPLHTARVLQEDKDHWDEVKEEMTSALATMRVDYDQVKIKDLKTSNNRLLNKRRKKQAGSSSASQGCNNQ
Method: as §1

[34] = molecular target: PDK1 (Homo sapiens, UniProt O15530); assay: Selectivity screen PDK1
Method: as §1

[35] = molecular target: PRAK (Homo sapiens, UniProt Q8IW41); assay: Selectivity screen PRAK
Method: as §1

[36] = molecular target: CLK2 (Homo sapiens, UniProt P49760); assay: Selectivity screen CLK2
Method: as §1

[37] = molecular target: ULK1 (Homo sapiens, UniProt O75385); assay: Selectivity screen ULK1
Method: as §1

`C=CC(=O)Nc1cccc(CNc2nc(Nc3ccc(N4CCN(C)CC4)cc3OC)ncc2Cl)c1` [TL6-144] was tested, and the “activity remaining in the presence of the inhibitor: CHK1” value [1] was 93, the “activity remaining in the presence of the inhibitor: EPH-B1” value [2] was 85 and the “activity remaining in the presence of the inhibitor: VEG-FR” value [3] was 39. For the same compound, the “activity remaining in the presence of the inhibitor: BRSK2” value [4] was 90, the “activity remaining in the presence of the inhibitor: PAK2” value [5] was 81 and the “activity remaining in the presence of the inhibitor: OSR1” value [6] was 47. For the same compound, the “activity remaining in the presence of the inhibitor: GCK” value [7] was 92, the “activity remaining in the presence of the inhibitor: HIPK1” value [8] was 79 and the “activity remaining in the presence of the inhibitor: MAPKAP-K2” value [9] was 103. The “activity remaining in the presence of the inhibitor: EF2K” value [10] was 95, the “activity remaining in the presence of the inhibitor: MARK3” value [11] was 48 and the “activity remaining in the presence of the inhibitor: ERK5” value [12] was 87. The “activity remaining in the presence of the inhibitor: ERK8” value [13] was 90, the “activity remaining in the presence of the inhibitor: PKCa” value [14] was 81 and the “activity remaining in the presence of the inhibitor: Aurora B” value [15] was 81. The “activity remaining in the presence of the inhibitor: CK2” value [16] was 103, the “activity remaining in the presence of the inhibitor: DYRK1A” value [17] was 90 and the “activity remaining in the presence of the inhibitor: IGF-1R” value [18] was 5. The “activity remaining in the presence of the inhibitor: MKK2” value [19] was 93, the “activity remaining in the presence of the inhibitor: RSK1” value [20] was 61 and the “activity remaining in the presence of the inhibitor: p38g MAPK” value [21] was 88. For the same compound, the “activity remaining in the presence of the inhibitor: JNK2” value [22] was 98, the “activity remaining in the presence of the inhibitor: FGF-R1” value [23] was 44 and the “activity remaining in the presence of the inhibitor: IRR” value [24] was 56. For the same compound, the “activity remaining in the presence of the inhibitor: PIM3” value [25] was 100, the “activity remaining in the presence of the inhibitor: TLK1” value [26] was 102 and the “activity remaining in the presence of the inhibitor: PRK2” value [27] was 78. For the same compound, the “activity remaining in the presence of the inhibitor: HER4” value [28] was 9, the “activity remaining in the presence of the inhibitor: MPSK1” value [29] was 91 and the “activity remaining in the presence of the inhibitor: GSK3b” value [30] was 87. For the same compound, the “activity remaining in the presence of the inhibitor: MEKK1” value [31] was 95, the “activity remaining in the presence of the inhibitor: p38d MAPK” value [32] was 94 and the “activity remaining in the presence of the inhibitor: MAPKAP-K3” value [33] was 119. The “activity remaining in the presence of the inhibitor: PDK1” value [34] was 101, the “activity remaining in the presence of the inhibitor: PRAK” value [35] was 93 and the “activity remaining in the presence of the inhibitor: CLK2” value [36] was 62. For the same compound, the “activity remaining in the presence of the inhibitor: ULK1” value [37] was 65.
With `C=CC(=O)Nc1cccc(CNc2nc(Nc3ccc(N4CCOCC4)cc3)ncc2Cl)c1` [TL8-52] the “activity remaining in the presence of the inhibitor: CHK1” value [1] was 91, the “activity remaining in the presence of the inhibitor: EPH-B1” value [2] was 75 and the “activity remaining in the presence of the inhibitor: VEG-FR” value [3] was 6. The “activity remaining in the presence of the inhibitor: BRSK2” value [4] was 87, the “activity remaining in the presence of the inhibitor: PAK2” value [5] was 75 and the “activity remaining in the presence of the inhibitor: OSR1” value [6] was 98. For the same compound, the “activity remaining in the presence of the inhibitor: GCK” value [7] was 21, the “activity remaining in the presence of the inhibitor: HIPK1” value [8] was 96 and the “activity remaining in the presence of the inhibitor: MAPKAP-K2” value [9] was 97. For the same compound, the “activity remaining in the presence of the inhibitor: EF2K” value [10] was 105, the “activity remaining in the presence of the inhibitor: MARK3” value [11] was 21 and the “activity remaining in the presence of the inhibitor: ERK5” value [12] was 63. The “activity remaining in the presence of the inhibitor: ERK8” value [13] was 65, the “activity remaining in the presence of the inhibitor: PKCa” value [14] was 91 and the “activity remaining in the presence of the inhibitor: Aurora B” value [15] was 13. For the same compound, the “activity remaining in the presence of the inhibitor: CK2” value [16] was 103, the “activity remaining in the presence of the inhibitor: DYRK1A” value [17] was 100 and the “activity remaining in the presence of the inhibitor: IGF-1R” value [18] was 24. For the same compound, the “activity remaining in the presence of the inhibitor: MKK2” value [19] was 63, the “activity remaining in the presence of the inhibitor: RSK1” value [20] was 60 and the “activity remaining in the presence of the inhibitor: p38g MAPK” value [21] was 93. The “activity remaining in the presence of the inhibitor: JNK2” value [22] was 95, the “activity remaining in the presence of the inhibitor: FGF-R1” value [23] was 49 and the “activity remaining in the presence of the inhibitor: IRR” value [24] was 75. The “activity remaining in the presence of the inhibitor: PIM3” value [25] was 90, the “activity remaining in the presence of the inhibitor: TLK1” value [26] was 82 and the “activity remaining in the presence of the inhibitor: PRK2” value [27] was 52. For the same compound, the “activity remaining in the presence of the inhibitor: HER4” value [28] was 31, the “activity remaining in the presence of the inhibitor: MPSK1” value [29] was 98 and the “activity remaining in the presence of the inhibitor: GSK3b” value [30] was 118. For the same compound, the “activity remaining in the presence of the inhibitor: MEKK1” value [31] was 103, the “activity remaining in the presence of the inhibitor: p38d MAPK” value [32] was 93 and the “activity remaining in the presence of the inhibitor: MAPKAP-K3” value [33] was 62. The “activity remaining in the presence of the inhibitor: PDK1” value [34] was 86, the “activity remaining in the presence of the inhibitor: PRAK” value [35] was 113 and the “activity remaining in the presence of the inhibitor: CLK2” value [36] was 29. The “activity remaining in the presence of the inhibitor: ULK1” value [37] was 48.
